Assay results taken from patent US20230301890A1, “COMPOSITIONS COMPRISING UROLITHINS” (Amazentis SA, priority 2022, published 2023).
“Also recorded” adds a separate entry of the source.

Experiments:
facial wrinkles = experiment: Aging study 1: wrinkle analysis of Colorface images; format: in vivo, human
From the text: The effect of the test product on the skin barrier function will be assessed by transepidermal […] (TEWL) at the beginning as well as after 2 weeks and after 8 weeks of product application. Furthermore, effects on the facial skin on skin hydration (by Corneometer), skin elasticity and firmness (by Cutometer) and skin color (by Spectrophotometer) will be investigated. Additionally, skin layer thickness and undulation index of the dermal epidermal junction (DEJ) will be measured by line-field confocal optical coherence tomography (LC-OCT). Images for wrinkle analysis and for documentation purpose will be taken with Colorface. A questionnaire regarding product traits will be filled in after 2 weeks of product application and at the end of the study.
The following efficacy assessment(s) will be performed: • Biomarker analysis of 3 mm punch-biopsies on 30 subjects (15 subjects per group) by Sponsor/3rd party • Transepidermal Water Loss (TEWL) by Tewameter [g/(m2h)j • Skin Hydration—Skin Capacitance by Corneometer [a.u.j] (see FIG. 8) • Skin Color by Spectrophotometer • Skin Firmness—R0 (Uf) by Cutometer [mm] • Skin Elasticity—R7 (Ur/Uf) by Cutometer • Image analysis by line-field confocal optical coherence tomography (LC-OCT) by Damae**: • (a) Skin layer thickness (epidermis and stratum corneum) • (b) Undulation index of the dermal epidermal junction (DEJ) • Image analysis of Colorface Images by Newtone • (a) analysis of wrinkles and fine lines (see FIG. 7) • (b) creation of average face • Questionnaire of product traits • upon decision of the sponsor, depending on the results of the other instrumental measurements analysis will be done on either one group at three timepoints, or on two groups at two timepoints
COLORFACE® PHOTOBOX (Newtone Technologies, Lyon, France): Colorface® is used for standardized, computer-controlled facial photography. It is equipped with a 24 Mpixel Nikon camera and a various range of LED-flashes at fixed positions in the booth. Illumination of the face is done with • ? standard flashes • ? parallel-polarized light • ? cross-polarized light • □ UV flashes to obtain fluorescent images. The acquisition software for Colorface is used as image database, but also defines the settings for the respective study. All settings are fixed so that unwanted changes of image capture parameters can be avoided. The instrument enables facial photography of high quality and same illumination at different assessment times. Images of the following position of the face will be taken: • ? front • ? right • ? left • 1 single image per setting, face position and assessment time • Data will be stored in the Newtone Imaging access cloud • Images will be provided to the sponsor in an anonymized way (e.g., black bar covering eyes) if possible.
Crow's Feet Analysis: • Parameter: Visible length, Visible surface, Visible depth and Visible volume • Illumination: STD60 • View: profile: right and left • Area: Crow's Feet

[1] = test system: reconstructed human epidermis (RHE); experiment: PGE2 release in reconstituted human epidermis under UV stimulation; format: cell-based; settings: UVB (+UVA) irradiated RHE
Method: Ten-day-old reconstructed human epidermis (RHE) were placed in maintenance medium. The RHE were topically treated with or without moisturizing creams containing different concentration of Urolithin A active and incubated for 24 hours. The RHE were then rinsed in PBS and irradiated with UVB (+UVA)—850 mJ/cm^2 (+6 J/cm^2) using a SOL500 Sun Simulator equipped with an H2 filter (Dr. Hönle, AG). After irradiation, the treatments were renewed and the RHE were incubated for 24 hours. In parallel, non-irradiated conditions were performed and kept in the dark during the irradiation time. All experimental conditions were performed in n=3. PGE2 released in the culture supernatants was measured using a specific ELISA kit according to the supplier's instructions (Enzo Life Sciences, ref. ADI-900-001). Statistical analysis performed by One-Way Anova.

[2] = test system: wrinkles in the periorbital regions; experiment: Aging study 2: skin roughness (wrinkle) by DermaTOP; format: in vivo, human; settings: 1% UA creams, 2, 4 and 8 weeks, vs untreated side; listed as UA
From the text: Anti-wrinkle efficacy will be assessed in the periorbital regions by investigating the three-dimensional structure of the wrinkles (DermaTOP). Skin hydration, skin elasticity effects and skin barrier function will be investigated by Corneometer, Cutometer and Tewameter measurements. On a subgroup of 12 subjects the ceramide content, including barrier lipids, in the Stratum Corneum will be performed by Raman Spectroscopy. […]
DERMATOP blue (Eo Tech SA, Marcoussis France): Using phase-shifted and gray-coded measurements of human skin the three-dimensional surface structure of the investigated skin site is captured. […] The fringes that are projected under a defined triangulation angle onto the surface of the measured target with a sinus-like intensity of brightness are detected with a CCD camera. The three-dimensional skin surface profile is calculated from the position of the fringes in combination with the gray values of each pixel. From the captured three-dimensional structure, roughness parameters are calculated. […]

With `O=c1oc2cc(O)ccc2c2ccc(O)cc12` [Urolithin A] the wrinkle depth (facial wrinkles; 0.5% Urolithin A skin cream, vs placebo) was “no impact”, the wrinkle depth (facial wrinkles; 0.5% Urolithin A skin cream, vs placebo, listed as UA) was “did not showed any significant effect” and the wrinkle depth (facial wrinkles; 0.5% Urolithin A skin cream, vs placebo, listed as urolithin A) was “Lack of anti-wrinkle effect”. For the same compound, the wrinkle depth (facial wrinkles; 1% Urolithin A skin cream, 8 weeks twice daily, vs placebo treated side) was “significant impact on reducing wrinkle depth”, the wrinkle depth (facial wrinkles; 1% Urolithin A skin cream, 8 weeks twice daily, vs placebo treated side, listed as UA) was “significant anti-wrinkle effects; also recorded: significant reduction” and the wrinkle depth (facial wrinkles; 1% Urolithin A skin cream, 8 weeks twice daily, vs placebo treated side, listed as urolithin A) was “Reduction; also recorded: Anti-wrinkle effect”. The reduction in wrinkles (facial wrinkles; cream containing Urolithin A at 1% alone) was 4-6%, the “PGE2 secretion compared to irradiated skin treated with basic cream formulation without UA” value ([1]; all UA concentrations tested) was “significantly reduces PGE2 secretion” and the “PGE2 secretion compared to irradiated non-treated skin” value ([1]; cream with UA at 0.5%, 1% and 2%, supernatant ELISA) was “significantly reduces PGE2 secretion”. For the same compound, the “wrinkles (finer and rougher skin structures, Ra and Rz)” value [2] was “significant anti-wrinkle effects; also recorded: significant impact on reducing wrinkles”.
